One data set concerns Sendai Virus (SeV). Nature of the data set: Sendai Virus infection and IFN-β production in CHME3 cells. Conditions: SeV MOI 1 and 10, DGP 1 μM, NH4Cl 20 mM. The format is cell-based. As to the method:
The Flaviviridae family of viruses encode a glycoprotein that is necessary to achieve fusion at the endosomal/lysosomal membranes, the step that releases viral components into the cytoplasm. […] Instead, SeV fuses at the plasma membrane. To this end, IFN-β production and viral infection were measured in CHME3 cells infected with SeV at an MOI 1 and 10 in the presence of DGP (1 μM) or 20 mM NH4Cl.
(§1) To detect viral copies of ZIKV and Sendai Virus (SeV) by qRT-PCR, cells were seeded in 24-well plates, with or without DGP treatment, and infected with the virus at the indicated MOI for 48 h. After the incubation period, total RNA from HT1080, VERO, and CHME3 cells was isolated and purified using Trizol (Invitrogen). For detection of ZIKV viral load in brain and spleen, 3 mice were sacrificed at 6 days post-infection and total RNA was extracted from the brain and spleen. For cDNA synthesis, 1 ng of total RNA was reverse transcribed. The reaction mixture included 1 mM of deoxyribonucleotide phosphates (dNTPs), 2 nM of the specific reverse primer of ZIKV or SeV, 1× M-MULV buffer, 10 U M-MuLV RT (BioLabs), and 2 U of RNase Inhibitor. The reaction mixture was incubated for 1 hour at 42° C. followed by 20 min at 65° C. to inactivate the enzyme. For actin detection, Oligo-dT was used to reverse transcribe total RNA.
ZIKV RNA levels were measured using real-time PCR. HT1080 and VERO cells were challenged by ZIKV MR766 at an MOI of 1 in the presence of DGP. At 48 hours post-challenge, cells were lysed and total RNA was extracted using trizol. Total RNA was used to determine the levels of ZIKV RNA by real-time PCR using specific primers against ZIKA. qRT-PCR was carried out using SYBR green in a 20-μl final volume using a MASTERCYCLER proS machine. The primers used to detect ZIKV were: SEQ ID NO. 1: 5′-TT […]-3′-Forward (Genome Position 941-964) and SEQ ID NO. 2: 5′-[…]-3′-Reverse (Genome position 1123-1103) (AY632535.2). For the detection of SeV, the following primers were used: SEQ ID NO. 3: 5′-[…]-3′-Forward (Genome position 210-233) and SEQ ID NO. 4: 5′-[…]-3′-Reverse (Genome position 332-307) (M30202. Genome position 210-332) (Wagner, A. M. et al. 2003, “Detection of sendai virus and pneumonia virus of mice by use of fluorogenic nuclease reverse transcriptase polymerase chain reaction analysis.” Comp Med 53(2): 173-177). For the detection of IFN-β the following primers were used: SEQ ID NO. 5: Forward 5-[…]-3′ (Genome position 644-668) and SEQ ID Na 6: Reverse 5′-[…]-3′ (Genome position 718-697) (NM_002176.2) and for actin detection: SEQ ID NO. 7: 5′-[…]-′3-Forward and SEQ ID NO. 8: 5′-[…]′3-Reverse. ZIKA viral RNA levels were normalized to actin (upper panels). […]

Another data set concerns WNV-RVP. The format is cell-based, West Nile virus. Conditions: VERO cells; DGP 1 μM; NH4Cl 20 mM.
Another data set concerns ZIKV. Nature of the data set: ZIKV viral load in brain and spleen of challenged mice (qRT-PCR). It is filed as in vivo, mouse. Conditions: 1 mg/kg; six days post-challenge. As to the method: The effect of DGP on viral replication in the brain and spleen was investigated in ZIKV-challenged mice (FIG. 13). To this end, viral loads were determined by qRT-PCR using specific primers against the ZIKV genome six days post-challenge.
as §1

Data set [1] deals with HT1080, CHME3, VERO cells. Nature of the data set: MTT cell viability assay. The format is cell-based, human and monkey. Conditions: human or monkey cells (HT1080, CHME3, VERO); 48 hours. As to the method:
Cell viability was determined by measuring the reduction of the tetrazolium dye MTT [3-(4,5-dimethylthiazol-2-yl)-2,5-diphenyltetrazolium bromide] to its insoluble form formazan. We treated 4×10^3 cells/well in a 96-well plate with serial dilutions of the indicated drugs. Human and monkey cells were incubated with DGP, diphyllin, or 6-deoxy-D-glucose for 48 hours at 37° C. After the incubation period, 10 μl MTT solution (5 mg/mL) was added to each well for an additional 4 hours at 37° C. Finally, the media was removed and dimethyl sulfoxide was added (200 μl/well) according to the manufacturer's instructions. The optical density was measured at 570 nm using a microplate reader. Experiments were performed in triplicates and standard deviations are shown. Mock-treated cells represent 100% viability.
Background: Tetrazolium dyes change colour on reduction, which living cells bring about.

In another data set the test system is ZIKV MR766. Nature of the data set: qRT-PCR quantification of ZIKV RNA in cells. The format is cell-based, Zika virus. Conditions: VERO and HT1080 cells; MOI 1; 48 hours; increasing concentrations. As to the method:
To corroborate these findings, quantitative real-time PCR (qRT-PCR) was used to quantify viral RNA using specific primers for the ZIKV genome (FIG. 3A). VERO and HT1080 cells were challenged with ZIKV at an MOI of 1 in the presence of DGP at the indicated concentrations. At 48 hours post-infection, ZIKV RNA was quantified by qRT-PCR, and normalized to Actin. […] Inhibition of viral RNA production correlated with the inhibition of viral infection (compare FIG. 3A with FIG. 3B).
as §1, with “For actin detection, Oligo-dT was used to reverse transcribe total RNA.” left out
ZIKV RNA levels were measured using real-time PCR. […]

The next data set relates to DENV1-RVP. It is filed as cell-based, dengue virus. Conditions: VERO cells; DGP 1 μM; NH4Cl 20 mM.

“Also recorded” adds a separate entry of the source.

As to `COc1cc2c(OC3OC(C)C(O)C(O)C3O)c3c(c(-c4ccc5c(c4)OCO5)c2cc1OC)C(=O)OC3` (centres unmarked) [DGP, 6-deoxyglucose-diphyllin], in the data set on Sendai Virus (SeV), the “IFN-β production in SeV-infected cells” value is “did not inhibit; also recorded: increased induction” and the “SeV infection / viral replication” value is recorded as “does not inhibit; also recorded: increased viral replication”. Also, the “WNV RVP infection” value in the data set with WNV-RVP is listed as “almost undetectable”. Further, in the data set with ZIKV, the “viral replication in the brain” value is listed as “completely inhibited” and the “viral replication in the spleen” value is on record as “low levels of viral replication were detected”. For the same compound, the “toxicity at concentrations required to inhibit ZIKV infection (MTT)” value in data set [1] is on record as “non-toxic; also recorded: not toxic”. Further, the “synthesis of viral RNA (normalized to Actin)” value in the data set with ZIKV MR766 is “completely inhibited”. The “DENV1 RVP infection” value with DENV1-RVP was “almost undetectable”.

(Values after patent publication US20220323471A1 (priority 2019, published 2022).)
